{"source": "ChEMBL document CHEMBL4033712", "about": "“Synthesis and biological evaluation of new C-12(α/β)-(N-) sulfamoyl-phenylamino-14-deoxy-andrographolide derivatives as potent anti-cancer agents” (Bioorg Med Chem Lett, 2017)", "key": {"[1]": {"experiment": "(§1) Growth inhibition of human NHDF after 72 hrs by CellTiter-Glo luminescent cell viability assay", "type": "cell-based", "details": "NHDF cells"}, "NHDF": {"test_system": "NHDF", "experiment": "as §1", "type": "cell-based", "details": "nhdf, 72 h"}, "[2]": {"experiment": "Growth inhibition of human NCI60 cells after 48 hrs by sulforhodamine B assay", "type": "functional", "details": "NCI60, 48 h"}}}
{"smiles": "CN(C)C/C=C/C(=O)Nc1ccc(C(=O)Nc2ccc(Nc3ncc(Cl)c(-c4c[nH]c5ccccc45)n3)cc2)cc1", "values": [{"measurement": "GI50 at 72 h", "setting": "[1]", "value": 0.0466, "unit": "µM"}, {"measurement": "LC50", "setting": "NHDF", "value": 0.250743, "unit": "µM"}]}
{"smiles": "C=C1CC[C@@H]2[C@](C)(CO)[C@H](O)CC[C@@]2(C)[C@@H]1C/C=C1/C(=O)OC[C@H]1O", "note": "[ANDROGRAPHOLIDE]", "values": [{"measurement": "GI50", "setting": "[2]", "value": 16.2, "unit": "µM"}, {"measurement": "TGI", "setting": "[2]", "value": 49.7, "unit": "µM"}, {"measurement": "CC50", "setting": "[2]; read-out: LC50 (the source's name)", "value": 80.9, "unit": "µM"}]}
